Experimental data published in paper PMC8126888 (RSC Medicinal Chemistry, 2020).
Like-named read-outs stand apart in the source and are kept apart here.

Key:
[1] = system: primary peritoneal mouse macrophages (PMM); experiment: cells; conditions: Macrophage, read-out: PMM IC50 (uM)
[2] = in vitro; conditions: human, microsomes, pH 7.4, HLM CLint (uL/min/mg), human liver microsomes
[3] = in vitro; conditions: mouse, microsomes, pH 7.4, MLM CLint (uL/min/mg), mouse liver microsomes
[4] = physchem; conditions: HPLC, Ascentis Express RP Amide column, pH 7.4, eLogD, experimental
[5] = in vitro; conditions: human, THP-1 cells differentiated with PMA
[6] = in vitro; conditions: human
[7] = in vitro; conditions: human, HFF-1 cells
[8] = in vitro; conditions: human, HepG2 cells
[9] = in vitro; conditions: PAMPA
[10] = system: Leishmania infantum MHOM/MA(BE)/67/ITMAP263 intracellular amastigotes; experiment: microbe, parasite or virus in culture; conditions: Macrophage, in Mus musculus
[11] = system: Leishmania infantum (MHOM/MA/67/ITMAP-263) intracellular amastigotes in THP-1; experiment: microbe, parasite or virus in culture; conditions: THP-1, read-out: L. infantum MHOM/MA/67/ITMAP263 intracellular amastigotes THP-1 cells IC50 (uM)
[12] = system: Trypanosoma cruzi, Tulahuen CL2, beta-galactosidase strain; experiment: microbe, parasite or virus in culture; conditions: MRC5, read-out: T. cruzi Tulahuen C4 (LacZ) IC50 (uM)
[13] = read-out: L. Inf. pIC50, from L. infantum intracellular amastigote IC50 (converted)
[14] = read-out: L. infantum MHOM/MA(BE)/67/ITMAP263 intracellular amastigotes IC50 (uM), intracellular amastigotes

## COc1ccc(Cl)cc1S(=O)(=O)N(Cc1ccccc1)C1COC(=O)OC1 [DNDI0003392146]
[1]
  IC50: > 64 µM
[2]
  microsomal CLint at 0.5 μM: 21 µL/min/mg
[3]
  microsomal CLint at 0.5 μM: 118 µL/min/mg
[4]
  chromatographic logD: 3.5
[5]
  CC50 at 120 h: > 64 µM
[6]
  CC50 at 3 days: 59.1 µM
[7]
  CC50: 54.8 µM
[8]
  CC50: > 64 µM
[9]
  Papp: 13.2 ×10⁻⁶ cm/s
[10]; [13]
  IC50: 17 µM
[10]; [14]
  IC50: 16.9 µM
[11]
  IC50: > 64 µM
[12]
  IC50: 17 µM

## NS(=O)(=O)c1cc2c(cc1Cl)NCN(Cc1ccccc1)S2(=O)=O [DNDI0003392143]
[1]
  IC50: > 64 µM
[2]
  microsomal CLint at 0.5 μM: 21 µL/min/mg
[3]
  microsomal CLint at 0.5 μM: 164 µL/min/mg
[4]
  chromatographic logD: 2.3
[5]
  CC50 at 120 h: > 64 µM
[6]
  CC50 at 3 days: > 64 µM
[7]
  CC50: > 64 µM
[8]
  CC50: > 64 µM
[9]
  Papp: 2.83 ×10⁻⁶ cm/s
[10]; [13]
  IC50: 57.5 µM
[10]; [14]
  IC50: 57 µM
[11]
  IC50: > 64 µM
[12]
  IC50: 27.2 µM

## COc1ccc(S(C)(=O)=O)cc1S(=O)(=O)N(Cc1ccccc1)Cc1cc(C(F)(F)F)nn1C [DNDI0003578374]
[1]
  IC50: > 64 µM
[2]
  microsomal CLint at 0.5 μM: 60 µL/min/mg
[3]
  microsomal CLint at 0.5 μM: 182 µL/min/mg
[4]
  chromatographic logD: 3.5
[5]
  CC50 at 120 h: > 64 µM
[6]
  CC50 at 3 days: > 64 µM
[7]
  CC50: > 64 µM
[8]
  CC50: > 64 µM
[9]
  Papp: 7.6 ×10⁻⁶ cm/s
[10]; [13]
  IC50: 13.2 µM
[10]; [14]
  IC50: 13.1 µM
[11]
  IC50: > 64 µM
[12]
  IC50: > 64 µM

## CCCCC1Nc2cc(Cl)c(S(N)(=O)=O)cc2S(=O)(=O)N1Cc1ccccc1 (stereo not drawn) [DNDI0003392147]
[1]
  IC50: > 64 µM
[2]
  microsomal CLint at 0.5 μM: 22 µL/min/mg
[3]
  microsomal CLint at 0.5 μM: 147 µL/min/mg
[4]
  chromatographic logD: 4
[5]
  CC50 at 120 h: 12 µM
[6]
  CC50 at 3 days: > 64 µM
[7]
  CC50: > 64 µM
[8]
  CC50: > 64 µM
[9]
  Papp: 1.39 ×10⁻⁶ cm/s
[10]; [13]
  IC50: 7.24 µM
[10]; [14]
  IC50: 7.3 µM
[11]
  IC50: 23.4 µM
[12]
  IC50: > 64 µM

## COc1ccc(C(=O)N2CCOCC2)cc1S(=O)(=O)N(Cc1ccccc1)CC(C)(C)C [DNDI0003407876]
[1]
  IC50: > 64 µM
[2]
  microsomal CLint at 0.5 μM: 1140 µL/min/mg
[3]
  microsomal CLint at 0.5 μM: 858 µL/min/mg
[5]
  CC50 at 120 h: > 64 µM
[6]
  CC50 at 3 days: > 64 µM
[7]
  CC50: > 64 µM
[8]
  CC50: > 64 µM
[9]
  Papp: 21.7 ×10⁻⁶ cm/s
[10]; [13]
  IC50: 1 µM
[10]; [14]
  IC50: 1 µM
[11]
  IC50: 27.5 µM
[12]
  IC50: 16.7 µM

## CCN(Cc1ccc(F)cc1)S(=O)(=O)c1cc(C(=O)N2CCOCC2)ccc1OC [DNDI0003392124]
[1]
  IC50: > 64 µM
[2]
  microsomal CLint at 0.5 μM: 142 µL/min/mg
[3]
  microsomal CLint at 0.5 μM: 116 µL/min/mg
[4]
  chromatographic logD: 2.7
[5]
  CC50 at 120 h: > 64 µM
[6]
  CC50 at 3 days: > 64 µM
[7]
  CC50: > 64 µM
[8]
  CC50: > 64 µM
[9]
  Papp: 15.5 ×10⁻⁶ cm/s
[10]; [13]
  IC50: 20.9 µM
[10]; [14]
  IC50: 20.7 µM
[11]
  IC50: > 64 µM
[12]
  IC50: 36 µM

## CCCCOc1ccc(C(=O)N2CCOCC2)cc1S(=O)(=O)NCc1ccccc1 [DNDI0003407874]
[1]
  IC50: > 64 µM
[2]
  microsomal CLint at 0.5 μM: 160 µL/min/mg
[3]
  microsomal CLint at 0.5 μM: 274 µL/min/mg
[4]
  chromatographic logD: 3.1
[5]
  CC50 at 120 h: > 64 µM
[6]
  CC50 at 3 days: > 64 µM
[7]
  CC50: > 64 µM
[8]
  CC50: > 64 µM
[9]
  Papp: 27.4 ×10⁻⁶ cm/s
[10]; [13]
  IC50: > 64 µM
[10]; [14]
  IC50: > 64 µM
[11]
  IC50: > 64 µM
[12]
  IC50: 45.9 µM

## COc1ccc(C#N)cc1S(=O)(=O)N(Cc1ccc(C(F)(F)F)nc1)Cc1ccc(C(F)(F)F)nc1 [DNDI0003578377]
[1]
  IC50: > 64 µM
[2]
  microsomal CLint at 0.5 μM: 17 µL/min/mg
[3]
  microsomal CLint at 0.5 μM: 64 µL/min/mg
[4]
  chromatographic logD: 3.9
[5]
  CC50 at 120 h: > 64 µM
[6]
  CC50 at 3 days: > 64 µM
[7]
  CC50: > 64 µM
[8]
  CC50: > 64 µM
[9]
  Papp: 3.45 ×10⁻⁶ cm/s
[10]; [13]
  IC50: 38 µM
[10]; [14]
  IC50: 38.1 µM
[11]
  IC50: > 64 µM
[12]
  IC50: 61.7 µM

## COCCOCN(Cc1ccccc1)S(=O)(=O)c1cc(OC)ccc1OC [DNDI0003425514]
[1]
  IC50: > 64 µM
[4]
  chromatographic logD: 3.4
[5]
  CC50 at 120 h: > 64 µM
[6]
  CC50 at 3 days: > 64 µM
[7]
  CC50: > 64 µM
[8]
  CC50: > 64 µM
[9]
  Papp: 12.8 ×10⁻⁶ cm/s
[10]; [13]
  IC50: 6.17 µM
[10]; [14]
  IC50: 6.11 µM
[11]
  IC50: > 64 µM
[12]
  IC50: > 64 µM

## O=S1(=O)NCNc2cc(Cl)c(S(=O)(=O)N(Cc3ccccc3)Cc3ccccc3)cc21 [DNDI0003425512]
[1]
  IC50: 32 µM
[2]
  microsomal CLint at 0.5 μM: 63 µL/min/mg
[4]
  chromatographic logD: 4.2
[5]
  CC50 at 120 h: 52.4 µM
[6]
  CC50 at 3 days: 25 µM
[7]
  CC50: 29.5 µM
[8]
  CC50: > 64 µM
[9]
  Papp: 0.04 ×10⁻⁶ cm/s
[10]; [13]
  IC50: 1.29 µM
[10]; [14]
  IC50: 1.28 µM
[11]
  IC50: 24.9 µM
[12]
  IC50: 9.14 µM
